Data taken from patent US11723883B2, “Hydroxynorketamine for the use in the treatment of depression” (DEVELCO PHARMA SCHWEIZ AG, priority 2017, dated 2023).

Tests used:
mice = settings: Zanos et al., 2016, cited from earlier work
[1] = Safety: adverse events in the dose-escalation study in healthy subjects
Procedure: (§1) A dose-escalation study was performed in five consecutive periods (7 days wash-out) in 15 healthy subjects (5 females, 20-25, BMI 19.4-27.6 kg/m2). The racemic analytes were measured using validated LC-MS/MS methods according to Hasan et al., 2017 (Hasan et al., Quantitative chiral and achiral determination of ketamine and its metabolites by LC-MS/MS in human serum, urine and fecal samples, Journal of Pharmaceutical and Biomedical Analysis, 2017, 139, 87-97).
(§2) In addition, 5 mg ketamine (in form of ketamine hydrochloride) solution was intravenously administered within 30 min in fasting state.
An adverse event (AE) therefore can be any unfavorable and unintended sign including an abnormal laboratory (or vital, ECG etc.) finding, symptom or disease temporally associated with the use of a medicinal (investigational) product, whether or not related to the medicinal (investigational) product.
A serious adverse event (SAE) is defined as any untoward medical occurrence that at any dose • results in death, or • is life-threatening, or • requires hospitalization or prolongation of existing hospitalization, or • results in persistent or significant disability/incapacity, or • is a congenital anomaly/birth defect
Adverse events (AE) were detected both by a standardized questionnaire on tolerability and by querying the subjects at the scheduled times. Furthermore, the subjects were asked to report any AE spontaneously.

[2] = Dose-escalation pharmacokinetics and metabolism study in 15 healthy subjects (LC-MS/MS)
Procedure: as §1, §2
The pharmacokinetics of ketamine and its metabolites norketamine and hydroxynorketamine were measured and depicted in the following table 1. AUC stands for the area under the curve, Cmax stands for the maximum plasma concentration, Tmax stands for the time to Cmax, F stands for absolute bioavailability, T1/2 stands for the apparent terminal half-life, AUCNK/K for the ratio of AUCNK to AUCK and AUCHNK/K for the ratio of AUCHNK to AUCK.
The maximum concentration (Cmax) and the time of maximum concentration (Tmax) were obtained directly from the measured concentration-time curves.
The area under the concentrations-time curve (AUC) was calculated with the measured data points from the time of administration until the last quantifiable concentration by the trapezoidal formula. The AUC was assessed up to the last sampling time above the limit of quantification and is extrapolated to infinity to obtain the AUC values.
Apparent Terminal half-life (T1/2) was calculated by the following equation T1/2=ln 2/λz.
The terminal elimination rate constant (λz) was evaluated from the terminal slope by log-linear regression analysis.
The absolute bioavailability (F) was calculated by the following equation Fabs=AUCoral/AUCiv×doseiv/doseoral. 4.2 Safety

[3] = test system: patients with major depressive disorder and bipolar depression; settings: single intravenous 40-minute infusion; lasting 1 week; Zarate et al., 2012; cited from earlier work
[4] = Treatment A ketamine 5 mg i.v., AEs certainly, probably or possibly related
[5] = 5 mg ketamine i.v. infusion (30 min), fasting

| SMILES | ketamine-related side effects (mice) | antidepressant-related actions (mice; independent of NMDR-inhibition) | Number of AEs ([1]; Treatment A (ketamine 5 mg i.v.)) | Number of subjects reporting dizziness (nervous system disorders) [1, 4] | Number of subjects reporting palpitation (cardiac disorders) [1, 4] | Number of subjects reporting tachycardia (cardiac disorder) [1, 4] | Percent of subjects reporting dizziness (nervous system disorders) [1, 4] [%] | Percent of subjects reporting palpitation (cardiac disorders) [1, 4] [%] | Percent of subjects reporting tachycardia (cardiac disorder) [1, 4] [%] | CL/F of ketamine [2, 5] [L/min] | CLM of ketamine [2, 5] [mL/min] | CLintestinal of ketamine [2, 5] [mL/min] | AUC ([2]; both, human, plasma, iv, 5 mg) [ng·h/mL] | CL renal ([2]; both, human, plasma, iv, 5 mg) [mL/min] | Cmax ([2]; both, human, plasma, iv, 5 mg) [ng/mL] | MRT ([2]; both, human, plasma, iv, 5 mg) [h] | Vd ([2]; both, human, plasma, iv, 5 mg) [L/kg] | half-life ([2]; both, human, plasma, iv, 5 mg) [h] | improvement in patients with major depressive disorder and bipolar depression [3] |
| --- | --- | --- | --- | --- | --- | --- | --- | --- | --- | --- | --- | --- | --- | --- | --- | --- | --- | --- | --- |
| N[C@@]1(c2ccccc2Cl)CCC[C@@H](O)C1=O [(2R,6R)-hydroxynorketamine] | lack ketamine-related side effects | exerts antidepressant-related actions | – | – | – | – | – | – | – | – | – | – | – | – | – | – | – | – | – |
| CNC1(c2ccccc2Cl)CCCCC1=O (racemic) [ketamine, 2-(2-chlorophenyl)-2-(methylamino) cyclohexan-1-one] | – | – | 10 | 6 | 1 | 1 | 40 | 7 | 7 | 1.67 ± 0.380 | 268 ± 75.6 | 0.046 ± 0.097 | 52.3 ± 12.2 | 33.6 ± 36.5 | 29.9 ± 8.48 | 4.68 ± 2.01 | 6.58 ± 3.07 | 5.89 ± 2.61 | rapid improvement |
